Paper PMC5458547, “Discovery of first-in-class reversible dual small molecule inhibitors against G9a and DNMTs in hematological malignancies” (Nature Communications, 2017)
Values after ≈ are worked out from the molar mass of the structure shown. Values joined by “and” are separate entries in the source; they are usually repeats but may differ in a detail not shown here. Equal values may be shown once.

Columns and labels:
MM1.S = experiment: Cell proliferation assay (MTS); assay type: cell-based; conditions: Homo sapiens
Kinetic solubility = assay type: physicochemical; conditions: aqueous buffer, kinetic from dmso stock, pH 7.4, 50 mM phosphate buffer
Method: This study was conducted at Wuxi (http://www.wuxi.com/) at pH 7.4 (50 mM phosphate buffer). […]
The pH was adjusted to 7.40±0.05 using either 1 M sodium hydroxide or 1 M hydrochloric acid. Test compounds were diluted to 0.2 mM in DMSO and further diluted prior to testing to 10 µM in PBS, pH 7.4 (final 5% DMSO). The assay was performed using a 96-well multiscreen-IP PAMPA plate (Millipore, Cat. # MAIPN4510), whose PVDF membrane was pre-coated with 5 µL of 1% lecithin/dodecane mixture. 150 µL of PBS solution containing the test compounds were added to the donor chamber. Blank PBS (300 µL) was also added to the PTFE acceptor plate, and the donor and acceptor plates were assembled and incubated for 4 h at room temperature with shaking at 150 rpm. […]

SK-MEL-19 = experiment: Cell proliferation assay (MTS); assay type: cell-based; conditions: Homo sapiens, SK-MEL19; Melanoma
H460 = experiment: Cell proliferation assay (MTS); assay type: cell-based; conditions: Homo sapiens, NCI-H460; NSCLC
GLP = molecular target: T1, GLP (Homo sapiens, UniProt Q9H9B1); experiment: Epigenetics selectivity panel (BPS Bioscience); assay type: biochemical; conditions: for IC50: chemiluminescence assay carried out at BPS
T1 construct: purchased BPS Bioscience (contract panel)
T1 sequence (Q9H9B1 1-1298): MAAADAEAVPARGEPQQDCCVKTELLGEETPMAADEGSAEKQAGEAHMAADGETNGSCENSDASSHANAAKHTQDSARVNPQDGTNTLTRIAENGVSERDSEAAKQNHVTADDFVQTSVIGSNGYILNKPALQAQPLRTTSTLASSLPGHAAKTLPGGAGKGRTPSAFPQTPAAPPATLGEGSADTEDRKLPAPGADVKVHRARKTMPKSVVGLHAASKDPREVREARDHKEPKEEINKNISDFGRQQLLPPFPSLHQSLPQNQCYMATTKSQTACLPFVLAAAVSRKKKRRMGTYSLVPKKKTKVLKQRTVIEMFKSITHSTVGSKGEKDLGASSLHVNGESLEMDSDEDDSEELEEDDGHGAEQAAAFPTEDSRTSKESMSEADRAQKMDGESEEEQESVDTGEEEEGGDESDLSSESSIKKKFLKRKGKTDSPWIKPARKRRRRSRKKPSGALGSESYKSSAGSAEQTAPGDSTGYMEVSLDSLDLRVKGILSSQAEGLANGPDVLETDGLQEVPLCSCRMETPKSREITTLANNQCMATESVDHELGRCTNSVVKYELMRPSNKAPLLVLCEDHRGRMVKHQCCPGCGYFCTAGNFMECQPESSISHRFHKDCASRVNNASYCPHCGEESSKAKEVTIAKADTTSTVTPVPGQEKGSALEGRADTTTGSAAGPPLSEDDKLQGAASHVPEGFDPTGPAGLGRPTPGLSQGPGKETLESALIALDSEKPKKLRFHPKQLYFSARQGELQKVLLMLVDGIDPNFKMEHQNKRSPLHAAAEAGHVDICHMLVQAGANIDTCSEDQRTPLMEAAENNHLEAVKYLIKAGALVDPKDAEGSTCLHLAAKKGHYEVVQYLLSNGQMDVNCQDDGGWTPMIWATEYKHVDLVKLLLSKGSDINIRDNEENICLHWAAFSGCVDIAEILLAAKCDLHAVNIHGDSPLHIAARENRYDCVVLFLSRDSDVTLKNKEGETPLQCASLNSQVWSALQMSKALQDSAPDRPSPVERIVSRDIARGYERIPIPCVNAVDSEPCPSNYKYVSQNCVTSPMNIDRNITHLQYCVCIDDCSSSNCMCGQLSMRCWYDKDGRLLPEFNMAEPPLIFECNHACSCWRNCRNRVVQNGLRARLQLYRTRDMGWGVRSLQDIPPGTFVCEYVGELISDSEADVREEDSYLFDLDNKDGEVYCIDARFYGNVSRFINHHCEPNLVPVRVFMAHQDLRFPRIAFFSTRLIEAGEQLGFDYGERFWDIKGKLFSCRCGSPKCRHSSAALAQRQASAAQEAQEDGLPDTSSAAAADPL

H187 = experiment: Cell proliferation assay (MTS); assay type: cell-based; conditions: Homo sapiens, NCI-H187; SCLC
BAZ2B = molecular target: T2, BAZ2B (Homo sapiens, UniProt Q9UIF8); experiment: Epigenetics selectivity panel (BPS Bioscience); assay type: binding
T2 construct: purchased DiscoverX KINOMEscan (kinases); BPS Bioscience (epigenetic targets)
T2 sequence (Q9UIF8 whole entry): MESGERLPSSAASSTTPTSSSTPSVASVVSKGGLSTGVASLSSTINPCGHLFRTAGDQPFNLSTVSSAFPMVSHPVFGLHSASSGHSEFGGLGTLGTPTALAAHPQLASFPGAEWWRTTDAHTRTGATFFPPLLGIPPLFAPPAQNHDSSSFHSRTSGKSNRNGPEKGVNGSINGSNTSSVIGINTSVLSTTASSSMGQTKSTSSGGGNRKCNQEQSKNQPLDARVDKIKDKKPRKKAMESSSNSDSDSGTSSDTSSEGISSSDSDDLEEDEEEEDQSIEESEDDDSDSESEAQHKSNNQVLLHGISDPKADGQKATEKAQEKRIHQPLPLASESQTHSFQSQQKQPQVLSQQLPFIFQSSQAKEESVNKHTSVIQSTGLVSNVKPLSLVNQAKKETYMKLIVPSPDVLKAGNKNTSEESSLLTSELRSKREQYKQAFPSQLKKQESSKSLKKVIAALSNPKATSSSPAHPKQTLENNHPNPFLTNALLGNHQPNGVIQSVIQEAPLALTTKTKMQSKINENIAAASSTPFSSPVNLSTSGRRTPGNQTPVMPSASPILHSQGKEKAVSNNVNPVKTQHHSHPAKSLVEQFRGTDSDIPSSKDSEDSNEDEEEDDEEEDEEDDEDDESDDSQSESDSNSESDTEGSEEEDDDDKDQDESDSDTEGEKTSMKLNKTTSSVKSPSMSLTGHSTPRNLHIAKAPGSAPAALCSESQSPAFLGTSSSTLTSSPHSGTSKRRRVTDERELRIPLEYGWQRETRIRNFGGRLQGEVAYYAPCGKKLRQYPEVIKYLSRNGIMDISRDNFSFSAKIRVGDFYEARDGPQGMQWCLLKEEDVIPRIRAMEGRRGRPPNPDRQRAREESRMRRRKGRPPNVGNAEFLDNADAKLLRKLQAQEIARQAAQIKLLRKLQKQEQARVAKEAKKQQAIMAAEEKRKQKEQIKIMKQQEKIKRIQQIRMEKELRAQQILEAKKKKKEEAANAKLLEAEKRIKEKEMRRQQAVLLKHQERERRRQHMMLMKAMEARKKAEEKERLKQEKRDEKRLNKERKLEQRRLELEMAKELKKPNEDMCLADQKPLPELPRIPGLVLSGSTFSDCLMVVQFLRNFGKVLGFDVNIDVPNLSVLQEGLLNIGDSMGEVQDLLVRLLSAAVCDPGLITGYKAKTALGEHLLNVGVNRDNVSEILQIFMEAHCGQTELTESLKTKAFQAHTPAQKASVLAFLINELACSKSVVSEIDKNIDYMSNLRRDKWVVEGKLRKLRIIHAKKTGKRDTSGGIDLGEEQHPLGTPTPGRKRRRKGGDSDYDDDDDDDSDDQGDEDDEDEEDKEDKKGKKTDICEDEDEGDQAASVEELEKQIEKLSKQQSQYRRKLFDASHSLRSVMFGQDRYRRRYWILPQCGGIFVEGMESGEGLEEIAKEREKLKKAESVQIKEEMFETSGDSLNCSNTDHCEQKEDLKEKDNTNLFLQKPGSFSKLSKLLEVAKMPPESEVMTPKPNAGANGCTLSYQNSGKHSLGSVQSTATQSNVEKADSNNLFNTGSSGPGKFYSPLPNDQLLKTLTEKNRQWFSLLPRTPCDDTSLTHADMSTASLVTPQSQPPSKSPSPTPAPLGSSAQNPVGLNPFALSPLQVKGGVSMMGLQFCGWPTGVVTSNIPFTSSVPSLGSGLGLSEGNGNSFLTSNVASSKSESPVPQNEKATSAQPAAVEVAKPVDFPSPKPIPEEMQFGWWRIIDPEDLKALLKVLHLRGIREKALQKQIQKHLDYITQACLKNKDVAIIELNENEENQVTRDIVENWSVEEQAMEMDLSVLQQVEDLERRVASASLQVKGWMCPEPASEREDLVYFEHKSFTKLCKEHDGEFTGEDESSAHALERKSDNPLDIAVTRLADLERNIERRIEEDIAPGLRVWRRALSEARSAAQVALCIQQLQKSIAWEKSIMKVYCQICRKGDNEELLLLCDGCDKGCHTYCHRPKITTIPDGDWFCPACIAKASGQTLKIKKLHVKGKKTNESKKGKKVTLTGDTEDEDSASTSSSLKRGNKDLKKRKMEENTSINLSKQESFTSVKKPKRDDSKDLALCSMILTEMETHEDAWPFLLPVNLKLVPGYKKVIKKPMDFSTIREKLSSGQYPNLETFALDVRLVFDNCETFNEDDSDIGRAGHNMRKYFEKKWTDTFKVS

Structure (SMILES)	GI50 (MM1.S) [nM]	solubility (Kinetic solubility) [µg/mL]	GI50 (SK-MEL-19) [nM]	GI50 (H460) [nM]	IC50 (GLP) [nM]	GI50 (H187) [nM]	inhibition at 10 µM (BAZ2B) [%]	% Inhibition at 10 μM: GLP (GLP; 10 µM)
COc1cc2c(NCC3CCN(C)CC3)cc(-c3ccc(C)o3)nc2cc1OCCCN1CCCC1 [CM-579, 6-methoxy-2-(5-methyl-2-furyl)-N-[(1-methyl-4-piperidyl)methyl]-7-(3-pyrrolidin-1-ylpropoxy)quinolin-4-amine]	3790	> 144	161	4110	> 10000	1970	0	
COc1cc2c(NC3CCN(C)CC3)cc(-c3ccc(C)o3)nc2cc1OCCCN1CCCC1 [CM-272, 6-methoxy-2-(5-methyl-2-furyl)-N-(1-methyl-4-piperidyl)-7-(3-pyrrolidin-1-ylpropoxy)quinolin-4-amine]	1080	118 (≈ 246 µM)	1040	1480	2	1640	0	100% and 75%
